In patent US20050059641A1, “Compositions and methods for treating and preventing cancer using analogs of vitamin D” (Aphios Corporation, priority 2003, published 2005):

Assays:
[1] = system: LNCaP cells (prostate cancer cells); assay: 3H-thymidine incorporation assay, LNCaP; format: cell-based, human; settings: 10^−6M
Procedure: The inventors further studied the effect of 1,25(OH)2D3-3-BE on LNCAP cells (most closely resembling human hormone-sensitive prostate cancer) and PZ-HPV-7 cells (immortalized normal prostate cells). The cells were treated with ethanol or 10^−6M of either 1,25(OH)2D3 or 1,25(OH)2D3-3-BE for 16 hours and the effect on proliferation was determined by ^3H-thymidine incorporation assays as described earlier. The viable cell count was determined by Methylene blue assay. The Methylene blue assay is a simple colorimetric method that is widely used to determine the viable cell count.
The inventors studied dose-dependency of antiproliferation and cytotoxicity by 1,25(OH)2D3 or 1,25(OH)2D3-3-BE in LNCaP cells. The cells were treated with 10^−8-10^−6M of either 1,25(OH)2D3 or 1,25(OH)2D3-3-BE or ethanol (used as a control). The effect on proliferation and viable cell count were determined by using ^3H-thymidine incorporation and Methylene blue assay respectively. […]
In a study, investigators compared the growth-inhibitory effects of 25-OH-D3-3-BE and 1,25(OH)2D3 in several VDR-positive epithelial cells, e.g. keratinocytes (primary skin cells), MCF-7 cells (breast cancer cells), hormone-sensitive LNCaP and hormone-refractory PC3 cells (prostate cancer cells), and PZ-HPV-7 (papillovirus immortalized normal prostate cells) by using ^3H-thymidine incorporation assays (FIGS. 14-19).

[2] = system: prostate tumor induced with PC-3 cells; assay: in vivo effect in mice bearing prostate tumor induced with PC-3 cells; design: species or system male SCID mice; settings: SCID mice with PC-3 tumor
Procedure: Sesame oil solutions (200 μl) of either 25-OH-D3 (10 μg) or 25-OH-D3-3-BE (13.2 μg, molar equivalent of 25-OH-D3) or vehicle were administered i.p. in alternate days for two weeks. […] At the end, mice were anesthetized, tumors were removed, and blood was collected. Tumors were embedded in paraffin and sections were made.

[3] = in vivo toxicity study in CD-1 mice; design: Serum Calcium on day 12: unit not given here; settings: for Body Weight on Day 12 / Serum Calcium on day 12 / Body Weight On Day 0: CD-1 mice; for Body Weight On Day 0: beginning of the experiment
Text: Investigators completed an in vivo study to determine the toxicity of 25-OH-D3-3-BE at various doses in CD-1 mice. The animals (average weight ˜30 gms) were maintained with normal chow and water ad libitum. […] At the end of the experiment the animals were lightly anesthetized and blood collected after decapitation for serum calcium-analysis. […] Frequency of administration, body weights at the beginning and at the end of the experiment and serum calcium values are given in the accompanying Table 1.

caspase-8 = assay: Caspase Colorimetric assay, caspase-8; format: cell-based; settings: PC3 cells, 10 nM, 14 hours
Procedure: Caspase-activity: There are several markers for apoptosis, and caspase activity is one of them; and their levels normally go up under apoptotic conditions. Investigators determined the levels of caspases 3, 8 and 9 by Caspase Colorimetric assay kits from R&D Systems (Minneapolis, Minn.) and used according to the manufacturer's instructions. Briefly, PC3 cells (1×10^6) were treated with 10 nM of 1,25(OH)2D3, 25-OH-D3 or 25-OH-D3-3-BE for 14 hours in culture medium (DMEM, 10% FBS and antibiotics). The cells were collected by centrifugation at 1000 RPM for 5 min. The cell pellet was lysed with lysis buffer, and the lysate was incubated on ice for 10 min. and centrifuged for 10,000 RPM for 5 min. Protein was estimated using Bradford protein estimation kit (BioRad). The enzymatic reactions were carried out in 96 well plate. For each reaction 100 μg lysate protein in 50 μl was incubated with 50 μl of 2×reaction buffer and 5 μl of caspase-3 or caspase-8 or caspase-9 calorimetric substrate for 2 h at 37° C. The absorbance was determined at 405 nm.

Q: With C=C1CCC(OC(=O)CBr)CC1=CC=C1CCCC2(C)C1CCC2C(C)CCCC(C)(C)O (stereo not shown) [25-OH-D3-3-BE, 25-hydroxyvitamin D3-3-bromoacetate] as the compound, how does the “growth-inhibitory effect (3H-thymidine incorporation)” value [1] read?
A: stronger antiproliferative agent than 1,25(OH)2D3

Q: What about the “lethal to the cells” value [1] of the same compound?
A: lethal

Q: What about the “loss of body weight” value ([2]; 13.2 μg i.p. in alternate days for two weeks) of the same compound?
A: no significant loss of body weight

Q: And the “Hematoxylin-Eosin staining of the tumor sections” value ([2]; 13.2 μg i.p. in alternate days for two weeks, versus vehicle (sesame oil))?
A: considerably less cellular

Q: What about the “condition of the mice at the end of treatment” value ([2]; 25-OH-D3 10 μg or 25-OH-D3-3-BE 13.2 μg (molar equivalent) i.p. in alternate days for two weeks) of the same compound?
A: viable

Q: And the “Body Weight on Day 12” value ([3]; 3.3 μg/kg intraperitoneally)?
A: 30.36 ± 1 grams

Q: What about the “Serum Calcium on day 12” value ([3]; 3.3 μg/kg intraperitoneally) of the same compound?
A: 9.1 ± 0.2

Q: And the “Body Weight On Day 0” value ([3]; 3.3 μg/kg intraperitoneally)?
A: 29 ± 0.6 grams

Q: And the “Body Weight on Day 12” value ([3]; 33 μg/kg intraperitoneally)?
A: 32.9 ± 1.4 grams

Q: What about the “Serum Calcium on day 12” value ([3]; 33 μg/kg intraperitoneally) of the same compound?
A: 9.4 ± 0.2

Q: What about the “Body Weight On Day 0” value ([3]; 33 μg/kg intraperitoneally) of the same compound?
A: 31 ± 0.83 grams

Q: What about the “Body Weight on Day 12” value ([3]; 166.7 μg/kg intraperitoneally) of the same compound?
A: 30.7 ± 1 grams

Q: And the “Serum Calcium on day 12” value ([3]; 166.7 μg/kg intraperitoneally)?
A: 9.7 ± 0.1

Q: And the “Body Weight On Day 0” value ([3]; 166.7 μg/kg intraperitoneally)?
A: 30.55 ± 0.7 grams

Q: And the toxicity in vivo ([3]; mouse, dose as high as 166.7 μg/Kg)?
A: non-toxic

Q: What about the Caspase-8 induction (caspase-8) of the same compound?
A: induced
